For one assay, the system named is OEOLA. As to the kind of experiment: Post-emergence weed control, field (Example 2), percent injury 16 DAT. Format: in vivo, Oenothera laciniate. An excerpt:
(§1) The herbicide compounds applied in the examples were used as experimental or commercially available solo or premix formulations which have been diluted with tap water to a suitable concentration. Glufosinate was used as a commercial SL formulation containing 280 g ai/I of glufosinate (Liberty 280 SL, BASF). While the PPO herbicides saflufenacil and trifludimoxazin were used as solo (saflufenacil - Sharpen/Heat herbicide 342 SC, BASF, or trifludimoxazin - Vulcarus 500 SC, BASF), or a premix of saflufenacil + trifludimoxazin as a 250 + 125 g ai/I SC formulation.
(§2) The evaluation for plant injury or damage caused by the chemical compositions was carried out using a scale from 0 - 100% when compared with the untreated control plants. Here, 0 means no damage and 100 means complete destruction of the plants.
(§3) A natural field population of small flowered bittercress (Cardamine parviflora; CARPA), cressleaf grounsel (Senecio glabellus; SENGL), cutleaf evening primrose (Oenothera laciniate; OEOLA), and annual bluegrass (Poa annua; POAAN) were treated with postemergence applications of either glufosinate at 450 or 655 g ai/ha, saflufenacil + trifludimoxazin at 1.7 + 0.8, or 4.2 + 2.1 g ai/ha, or the combination of glufosinate and saflufenacil + trifludimoxazin at 450 and 1.7 + 0.8, or 4.2 + 2.1 g ai/ha, respectively, when they were 10 - 25 cm in height. […]

The test system of a further assay is LAMAM. Kind of assay: Post-emergence weed control, field (Example 3), percent injury 17 DAT. Format: in vivo, Lamium amplexicaule.
Text: as §1, §2
(§4) A natural field population of common chickweed (Stellaria media; STEME), purple cudweed (Gnaphalium purpureum; GNAPU), henbit (Lamium amplexicaule; LAMAM), and annual bluegrass (Poa annua; POAAN) were treated with postemergence applications of either glufosinate at 450 or 655 g ai/ha, saflufenacil + trifludimoxazin at 1.7 + 0.8, or 4.2 + 2.1 g ai/ha, or the combination of glufosinate and saflufenacil + trifludimoxazin at 450 and 1.7 + 0.8, or 4.2 + 2.1 g ai/ha, respectively, when they were 7.6 - 15 cm in height. […]

In assay [1] the test system is POAAN. Kind of assay: Post-emergence weed control, field (Example 2), percent injury 16 DAT. Type of assay: in vivo, Poa annua.
Text: as §1, §2, §3

The subject of assay [2] is POAAN. As to the kind of experiment: Post-emergence weed control, field (Example 3), percent injury 17 DAT. Format: in vivo, Poa annua.
Text: as §1, §2, §4

A further assay has as its system GNAPU. The description is as above. Type of assay: in vivo, Gnaphalium purpureum.
Text: as §1, §2, §4

In the next assay the test system is STEME. Described as above. Format: in vivo, Stellaria media.
Text: as §1, §2, §4

A further assay has as its system SENGL. Kind of assay: Post-emergence weed control, field (Example 2), percent injury 16 DAT. Format: in vivo, Senecio glabellus.
Text: as §1, §2, §3

The test system of another assay is CARPA. The assay is described as above. Format: in vivo, Cardamine parviflora.
Text: as §1, §2, §3

A further assay relates to LOLMU. As to the kind of experiment: Post-emergence weed control, greenhouse (Example 1), percent injury 14 DAT. As to conditions: Lolium multiflorum, 336 h, Glufosinate 450 g/ha, read-out: Herbicidal action against LOLMU (% activity compared to untreated) Found. Type of assay: in vivo.
Text: as §1, §2
22., E=X+Y-(X*Y/100), where X = effect in percent using herbicide A at an application rate of a; Y = effect in percent using herbicide B at an application rate of b; E = expected effect (in %) of A + B at application rates a + b.
The value E corresponds to the effect (plant damage or injury) which is to be expected if the activity of the individual compounds is just additive. If the observed effect is higher than the value E calculated according to Colby, a synergistic effect is present. […]

Consider `CP(=O)(O)CCC(N)C(=O)O` (racemic) [Glufosinate, (2RS)-2-amino-4-[hydroxy(methyl)phosphinoyl]butyric acid], for which the “Mean % Control (16 DAT) OEOLA” value in the assay on OEOLA (450 g ai/ha) is listed as 81.7%; in the assay with OEOLA (655 g ai/ha), 92.3%. Moreover, the “Mean % Control (17 DAT) LAMAM” value is listed as 50.0% with LAMAM (450 g ai/ha) and 82.7% with LAMAM (655 g ai/ha). Moreover, the “Mean % Control (16 DAT) POAAN” value with POAAN [1] (450 g ai/ha) amounted to 80.0%; in the assay on POAAN [1] (655 g ai/ha), 90.7%. The “Mean % Control (17 DAT) POAAN” value in the assay with POAAN [2] (450 g ai/ha) is 66.7%; in the assay with POAAN [2] (655 g ai/ha), 86.7%. Moreover, the “Mean % Control (17 DAT) GNAPU” value was 78.3% in the assay on GNAPU (450 g ai/ha) and 98.7% in the assay on GNAPU (655 g ai/ha). Further, the “Mean % Control (17 DAT) STEME” value in the assay with STEME (450 g ai/ha) is 53.3%; in the assay on STEME (655 g ai/ha), 90.0%. Further, the “Mean % Control (16 DAT) SENGL” value is recorded as 80.7% with SENGL (450 g ai/ha) and 88.7% in the assay on SENGL (655 g ai/ha). In addition, the “Mean % Control (16 DAT) CARPA” value was found to be 90.7% in the assay on CARPA (450 g ai/ha) and 95.0% in the assay on CARPA (655 g ai/ha). Besides, in the assay with LOLMU, the activity at 450 g/ha is 68.5%.

For the origin of these results see EP4000400A1, “HERBICIDE COMBINATION COMPRISING GLUFOSINATE, SA[…] TRIFLUDIMOXAZIN” (BASF SE, priority 2020, dated 2022).
